Data taken from ChEMBL document CHEMBL1145408, “Substituted E-3-(2-chloro-3-indolylmethylene)1,3-dihydroindol-2-ones with antitumor activity. Effect on the cell cycle and apoptosis” (2007).
Structures can show the parent of a compound that is named as a salt. Each block holds one compound with its values, some of them ahead of it. Active and inactive are the calls of the source. No cut-off for these calls is given here.

Assays:
[1] = target: T1, Caspase-7 (Homo sapiens) (UniProt P55210); experiment: Activation of caspase 7 activity in IGROV1 cells assessed as DEVD peptide hydrolysis at 5 uM after 24 hrs; format: cell-based; settings: IGROV-1
T1 sequence (whole entry): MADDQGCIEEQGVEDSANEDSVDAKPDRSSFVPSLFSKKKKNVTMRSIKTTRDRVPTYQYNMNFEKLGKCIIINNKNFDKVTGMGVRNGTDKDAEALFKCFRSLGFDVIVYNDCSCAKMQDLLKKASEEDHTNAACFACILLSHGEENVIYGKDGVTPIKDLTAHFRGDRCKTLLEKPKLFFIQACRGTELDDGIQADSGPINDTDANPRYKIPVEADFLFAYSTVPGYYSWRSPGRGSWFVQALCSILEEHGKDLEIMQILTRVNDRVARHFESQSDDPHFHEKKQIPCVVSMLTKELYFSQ

[2] = target: T2, Caspase-3 (Homo sapiens) (UniProt P42574); experiment: Activation of caspase 3 activity in IGROV1 cells assessed as DEVD peptide hydrolysis at 5 uM after 24 hrs; format: cell-based; settings: IGROV-1
T2 sequence (whole entry): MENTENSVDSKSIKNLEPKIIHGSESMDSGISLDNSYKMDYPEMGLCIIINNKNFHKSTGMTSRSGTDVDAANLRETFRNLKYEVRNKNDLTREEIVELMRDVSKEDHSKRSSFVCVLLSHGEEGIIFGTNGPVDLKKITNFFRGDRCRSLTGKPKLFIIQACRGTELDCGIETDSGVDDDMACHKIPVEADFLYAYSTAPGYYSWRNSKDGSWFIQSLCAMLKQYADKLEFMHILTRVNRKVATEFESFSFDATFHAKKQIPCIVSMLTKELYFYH

[3] = Antitumor activity against renal tumor cells; format: functional; settings: Homo sapiens; for TGI: read-out: pTGI (converted)
[4] = Antitumor activity against ovarian tumor cells; format: functional; settings: Homo sapiens; for TGI: read-out: pTGI (converted)
[5] = Antitumor activity against breast tumor cells; format: functional; settings: Homo sapiens; for TGI: read-out: pTGI (converted)
[6] = test system: NSCLC; experiment: Antitumor activity against NSCLC cells; format: functional; settings: Homo sapiens; for TGI: read-out: pTGI (converted)
[7] = Antitumor activity against CNS tumor cells; format: functional; settings: Homo sapiens; for TGI: read-out: pTGI (converted)
[8] = Antitumor activity against melanoma cells; format: functional; settings: Homo sapiens, Melanoma cell; for CC50: read-out: Log LC50 (the source's name) (converted); for TGI: read-out: pTGI (converted)
[9] = Antitumor activity against leukemia cells; format: functional; settings: Homo sapiens, Leukemia cell; for TGI: read-out: pTGI (converted)
[10] = Antitumor activity against prostate tumor cells; format: functional; settings: Homo sapiens; for CC50: read-out: Log LC50 (the source's name) (converted); for TGI: read-out: pTGI (converted)
[11] = Antitumor activity against colon tumor cells; format: functional; settings: Homo sapiens; for TGI: read-out: pTGI (converted)

Activity [1]: Active
Activity [2]: Active
Compound: COc1cc2c(/C=C3/C(=O)Nc4cc(C)c(O)cc43)c(Cl)n(Cc3ccc(Cl)cc3)c2cc1C

Activity [1]: Active
Activity [2]: Active
Compound: COc1cc2c(/C=C3/C(=O)Nc4ccc(F)cc43)c(Cl)n(C)c2cc1C

Activity [1]: Active
Activity [2]: Active
Compound: COc1cc2c(/C=C3/C(=O)Nc4ccc(O)cc43)c(Cl)n(Cc3ccc(Cl)cc3)c2cc1C

Activity [1]: Active
Activity [2]: Active
Compound: COc1cc2c(/C=C3/C(=O)Nc4ccc(Cl)cc43)c(Cl)n(Cc3ccc(Cl)cc3)c2cc1C

Activity [1]: Active
Activity [2]: Active
Compound: COc1cc2c(/C=C3/C(=O)Nc4cccc(Cl)c43)c(Cl)n(Cc3ccc(Cl)cc3)c2cc1C

Activity [1]: Active
Activity [2]: Active
Compound: COc1cc2c(/C=C3/C(=O)Nc4ccc(F)cc43)c(Cl)n(Cc3ccccc3)c2cc1C

The remaining lines, values behind:

Compound: CC[C@]1(O)C[C@H]2CN(CCc3c([nH]c4ccccc34)[C@@](C(=O)OC)(c3cc4c(cc3OC)N(C=O)[C@H]3[C@@](O)(C(=O)OC)[C@H](OC(C)=O)[C@]5(CC)C=CCN6CC[C@]43[C@@H]65)C2)C1 [VINCRISTINE SULFATE]
GI50 [3]: 316 nM
TGI [3]: 20000 nM
GI50 [4]: 316 nM
TGI [4]: 20000 nM
GI50 [5]: 316 nM
TGI [5]: 7940 nM
GI50 [6]: 251 nM
TGI [6]: 15800 nM
GI50 [7]: 126 nM
TGI [7]: 6310 nM
GI50 [8]: 158 nM
CC50 [8]: 251000 nM
TGI [8]: 7940 nM
GI50 [9]: 100 nM
TGI [9]: 15800 nM
GI50 [10]: 126 nM
CC50 [10]: 316000 nM
TGI [10]: 6310 nM
GI50 [11]: 100 nM
TGI [11]: 3980 nM

Compound: COc1cc2c(/C=C3/C(=O)Nc4ccc(F)cc43)c(Cl)[nH]c2cc1C
Activity [1]: Active
Activity [2]: Active

Compound: COc1cc2c(/C=C3/C(=O)Nc4cc(C)c(O)cc43)c(Cl)n(C)c2cc1C
Activity [1]: Active
Activity [2]: Active

Compound: COc1cc2c(/C=C3/C(=O)Nc4ccc(Cl)cc43)c(Cl)n(C)c2cc1C
Activity [1]: Active
Activity [2]: Active

Compound: COc1cc2c(/C=C3/C(=O)Nc4c3ccc3ccccc43)c(Cl)[nH]c2cc1C
GI50 [3]: 89.1 nM
LC50 [3]: 50100 nM
TGI [3]: 30900 nM
Activity [1]: Active
GI50 [4]: 12 nM
LC50 [4]: 47900 nM
TGI [4]: 708 nM
GI50 [5]: 39.8 nM
LC50 [5]: 50100 nM
TGI [5]: 2040 nM
GI50 [6]: 102 nM
LC50 [6]: 49000 nM
TGI [6]: 4270 nM
Activity [2]: Active
GI50 [7]: 13.5 nM
LC50 [7]: 50100 nM
TGI [7]: 794 nM
GI50 [8]: 10 nM
CC50 [8]: 40700 nM
TGI [8]: 3550 nM
GI50 [9]: 10.2 nM
TGI [9]: 537 nM
GI50 [10]: 17 nM
CC50 [10]: 50100 nM
TGI [10]: 50100 nM
GI50 [11]: 17 nM
LC50 [11]: 50100 nM
TGI [11]: 3720 nM

Compound: COc1cc2c(/C=C3/C(=O)Nc4ccccc43)c(Cl)n(C)c2cc1C
Activity [1]: Active
Activity [2]: Active

Compound: COc1cc2c(/C=C3/C(=O)Nc4cccc(Cl)c43)c(Cl)n(C)c2cc1C
Activity [1]: Active
Activity [2]: Active

Compound: COc1cc2c(/C=C3/C(=O)Nc4c3ccc3ccccc43)c(Cl)n(C)c2cc1C
GI50 [3]: 72.4 nM
LC50 [3]: 22400 nM
TGI [3]: 2630 nM
Activity [1]: Active
GI50 [4]: 35.5 nM
LC50 [4]: 22900 nM
TGI [4]: 562 nM
GI50 [5]: 46.8 nM
LC50 [5]: 13800 nM
TGI [5]: 3020 nM
GI50 [6]: 30.9 nM
LC50 [6]: 50100 nM
TGI [6]: 4790 nM
Activity [2]: Active
GI50 [7]: 115 nM
LC50 [7]: 30900 nM
TGI [7]: 1620 nM
GI50 [8]: 53.7 nM
CC50 [8]: 36300 nM
TGI [8]: 6610 nM
GI50 [9]: 17.4 nM
TGI [9]: 501 nM
GI50 [10]: 562 nM
CC50 [10]: 25700 nM
TGI [10]: 2450 nM
GI50 [11]: 77.6 nM
LC50 [11]: 5130 nM
TGI [11]: 129 nM

Compound: COc1cc2c(/C=C3/C(=O)Nc4ccc(O)cc43)c(Cl)n(C)c2cc1C
Activity [1]: Active
Activity [2]: Active
